Experimental findings from ChEMBL document CHEMBL4715829, “Heterodimeric Rifampicin-Tobramycin conjugates break intrinsic resistance of Pseudomonas aeruginosa to doxycycline and chloramphenicol in vitro and in a Galleria mellonella in vivo model” (Eur J Med Chem, 2019) are described below.

The test system of test [1] is Pseudomonas aeruginosa. Nature of the test: Antibacterial activity against Pseudomonas aeruginosa 101885 assessed as fractional inhibitory concentration index in presence of doxycycline incubated for 18 hrs by broth microdilution assay. In kind it is functional.
Test [2] has as its system Acinetobacter baumannii. Nature of the test: Antibacterial activity against Acinetobacter baumannii ATCC 17978 assessed as potentiation of chloramphenicol-induced antibacterial activity by measuring chloramphenicol MIC at 10 uM incubated for 18 hrs in presence of chloramphenicol by broth microdilution assay (reference value: 64 ug/ml). In kind it is functional.
Test [3] has as its system Acinetobacter baumannii. As to the kind of experiment: Antibacterial activity against Acinetobacter baumannii ATCC 17978 assessed as fractional inhibitory concentration index in presence of chloramphenicol incubated for 18 hrs by broth microdilution assay. In kind it is functional.
The test system of test [4] is Escherichia coli. As to the kind of experiment: Antibacterial activity against Escherichia coli ATCC 25922 assessed as potentiation of chloramphenicol-induced antibacterial activity by measuring chloramphenicol MIC at 10 uM incubated for 18 hrs in presence of chloramphenicol by broth microdilution assay (reference value: 2 ug/ml). In kind it is functional.
The subject of test [5] is Klebsiella pneumoniae. Nature of the test: Antibacterial activity against Klebsiella pneumoniae ATCC 16381 assessed as potentiation of doxycycline-induced antibacterial activity by measuring doxycycline MIC at 10 uM incubated for 18 hrs in presence of doxycycline by broth microdilution assay (reference value: 128 ug/ml). In kind it is functional.
Test [6] deals with Enterobacter cloacae. Nature of the test: Antibacterial activity against Enterobacter cloacae ATCC 117029 assessed as potentiation of doxycycline-induced antibacterial activity by measuring doxycycline MIC at 10 uM incubated for 18 hrs in presence of doxycycline by broth microdilution assay (reference value: 64 ug/ml). In kind it is functional.
In test [7] the test system is Enterobacter cloacae. Nature of the test: Antibacterial activity against Enterobacter cloacae ATCC 117029 assessed as potentiation of chloramphenicol-induced antibacterial activity by measuring chloramphenicol MIC at 10 uM incubated for 18 hrs in presence of chloramphenicol by broth microdilution assay (reference value: 8 ug/ml). In kind it is functional.
Test [8] has as its system Enterobacter cloacae. Nature of the test: Antibacterial activity against Enterobacter cloacae ATCC 117029 assessed as fractional inhibitory concentration index in presence of chloramphenicol incubated for 18 hrs by broth microdilution assay. In kind it is functional.
The subject of test [9] is Pseudomonas aeruginosa. As to the kind of experiment: Antibacterial activity against Pseudomonas aeruginosa 259-96918 assessed as fractional inhibitory concentration incubated for 18 hrs in presence of rifampicin by broth microdilution assay. In kind it is functional.
For test [10], the system named is Pseudomonas aeruginosa. Nature of the test: Antibacterial activity against Pseudomonas aeruginosa 262-101856 assessed as fractional inhibitory concentration incubated for 18 hrs in presence of tigecycline by broth microdilution assay. In kind it is functional.
In test [11] the test system is Pseudomonas aeruginosa. As to the kind of experiment: Antibacterial activity against Pseudomonas aeruginosa 101885 assessed as fractional inhibitory concentration index incubated for 18 hrs in presence of tigecycline by broth microdilution assay. In kind it is functional.
For test [12], the system named is Pseudomonas aeruginosa. As to the kind of experiment: Antibacterial activity against Pseudomonas aeruginosa 259-96918 assessed as fractional inhibitory concentration index incubated for 18 hrs in presence of minocycline by broth microdilution assay. In kind it is functional.
The test system of test [13] is Pseudomonas aeruginosa. As to the kind of experiment: Potentiation of doxycycline-induced antibacterial activity against wild type Pseudomonas aeruginosa PAO1 assessed as fold change in doxycycline MIC at <=9.8 uM incubated for 18 hrs in presence of doxycycline by broth microdilution assay. In kind it is functional. Conditions: dose microM <=9.8.
Test [14] deals with Pseudomonas aeruginosa. As to the kind of experiment: Antibacterial activity against Pseudomonas aeruginosa 260-97103 infected in Galleria mellonella larvae assessed as survival of larvae at 100 mg/kg treated at 3 hrs post-infection in presence of doxycycline and measured after 24 hrs relative to control. In kind it is functional.
Test [15] concerns Escherichia coli. Nature of the test: Antibacterial activity against Escherichia coli ATCC 25922 assessed as fractional inhibitory concentration index in presence of chloramphenicol incubated for 18 hrs by broth microdilution assay. In kind it is functional.
Test [16] deals with Enterobacter cloacae. As to the kind of experiment: Antibacterial activity against Enterobacter cloacae ATCC 117029 assessed as reduction in bacterial growth incubated for 18 hrs by broth microdilution assay. In kind it is functional.
Test [17] has as its system Pseudomonas aeruginosa. Nature of the test: Potentiation of doxycycline-induced antibacterial activity against Pseudomonas aeruginosa 101885 assessed as fold change in doxycycline MIC at 9.8 uM incubated for 18 hrs in presence of doxycycline by broth microdilution assay relative to control. In kind it is functional.
The subject of test [18] is Pseudomonas aeruginosa. As to the kind of experiment: Potentiation of doxycycline-induced antibacterial activity against Pseudomonas aeruginosa 260-97103 assessed as fold change in doxycycline MIC at 9.8 uM incubated for 18 hrs in presence of doxycycline by broth microdilution assay relative to control. In kind it is functional.
The subject of test [19] is Pseudomonas aeruginosa. Nature of the test: Potentiation of doxycycline-induced antibacterial activity against Pseudomonas aeruginosa 260-97103 incubated for 18 hrs in presence of doxycycline by broth microdilution assay. In kind it is functional, organism-based. The conditions noted are these: dose 1-32 µg/ml.
Test [20] has as its system Pseudomonas aeruginosa. As to the kind of experiment: Potentiation of chloramphenicol-induced antibacterial activity against Pseudomonas aeruginosa 260-97103 incubated for 18 hrs in presence of chloramphenicol by broth microdilution assay. In kind it is functional, organism-based. Conditions: dose 1-32 µg/ml.
Test [21] concerns Pseudomonas aeruginosa. As to the kind of experiment: Antibacterial activity against Pseudomonas aeruginosa 101243 assessed as fractional inhibitory concentration incubated for 18 hrs in presence of chloramphenicol by broth microdilution assay. In kind it is functional.
Test [22] relates to Pseudomonas aeruginosa. Nature of the test: Antibacterial activity against Pseudomonas aeruginosa 264-101354 assessed as fractional inhibitory concentration incubated for 18 hrs in presence of doxycycline by broth microdilution assay. In kind it is functional.
The test system of test [23] is Pseudomonas aeruginosa. Nature of the test: Antibacterial activity against Pseudomonas aeruginosa 264-101354 assessed as fractional inhibitory concentration incubated for 18 hrs in presence of chloramphenicol by broth microdilution assay. In kind it is functional.
In test [24] the test system is Pseudomonas aeruginosa. As to the kind of experiment: Antibacterial activity against Pseudomonas aeruginosa 101243 assessed as fractional inhibitory concentration incubated for 18 hrs in presence of doxycycline by broth microdilution assay. In kind it is functional.
Test [25] deals with Pseudomonas aeruginosa. As to the kind of experiment: Antibacterial activity against Pseudomonas aeruginosa 100036 assessed as fractional inhibitory concentration incubated for 18 hrs in presence of chloramphenicol by broth microdilution assay. In kind it is functional.
Test [26] has as its system Pseudomonas aeruginosa. As to the kind of experiment: Antibacterial activity against Pseudomonas aeruginosa 260-97103 assessed as reduction in bacterial growth by measuring doxycycline MIC at 2 ug/ml incubated for 18 hrs in presence of doxycycline by broth microdilution assay (reference value: 16 ug/ml). Conditions: dose 2 µg/ml. In kind it is functional.
The test system of test [27] is Pseudomonas aeruginosa. As to the kind of experiment: Antibacterial activity against wild type Pseudomonas aeruginosa PAO1 assessed as reduction in bacterial growth by measuring doxycycline MIC at 8 ug/ml incubated for 18 hrs in presence of doxycycline by broth microdilution assay (reference value: 16 ug/ml). In kind it is functional. The conditions noted are these: dose 8 µg/ml.

Test [28] deals with Pseudomonas aeruginosa. As to the kind of experiment: Potentiation of doxycycline-induced antibacterial activity against Pseudomonas aeruginosa 264-101354 assessed as fold change in doxycycline MIC at 7.6 uM incubated for 18 hrs in presence of doxycycline by broth microdilution assay relative to control. In kind it is functional.
In test [29] the test system is Escherichia coli. As to the kind of experiment: Potentiation of chloramphenicol-induced antibacterial activity against Escherichia coli ATCC 25922 assessed as fold change in chloramphenicol MIC at 7.6 uM incubated for 18 hrs in presence of chloramphenicol by broth microdilution assay relative to control. In kind it is functional.
Test [30] has as its system Pseudomonas aeruginosa. As to the kind of experiment: Antibacterial activity against Pseudomonas aeruginosa 264-101354 assessed as reduction in bacterial growth by measuring chloramphenicol MIC at 8 ug/ml incubated for 18 hrs in presence of chloramphenicol by broth microdilution assay (reference value: 4096 ug/ml). In kind it is functional. Conditions: dose 8 µg/ml.
The subject of test [31] is Pseudomonas aeruginosa. As to the kind of experiment: Antibacterial activity against Pseudomonas aeruginosa 259-96918 assessed as fractional inhibitory concentration incubated for 18 hrs in presence of doxycycline by broth microdilution assay. In kind it is functional.
The test system of test [32] is Pseudomonas aeruginosa. As to the kind of experiment: Antibacterial activity against Pseudomonas aeruginosa 259-96918 assessed as fractional inhibitory concentration incubated for 18 hrs in presence of chloramphenicol by broth microdilution assay. In kind it is functional.

SMILES strings stand for the structures.

Regarding `CO[C@H]1/C=C/O[C@@]2(C)Oc3c(C)c(O)c4c(O)c(c(/C=N/N5CCN(Cc6cn(CCCCCCO[C@@H]7[C@@H](O[C@H]8O[C@H](CO)[C@@H](O)[C@H](N)[C@H]8O)[C@H](N)C[C@H](N)[C@H]7O[C@H]7O[C@H](CN)[C@@H](O)C[C@H]7N)nn6)CC5)c(O)c4c3C2=O)NC(=O)/C(C)=C\C=C\[C@H](C)[C@H](O)[C@@H](C)[C@@H](O)[C@@H](C)[C@H](OC(C)=O)[C@@H]1C.Cl.Cl.Cl.Cl.Cl`, the “fractional inhibitory concentration index (FICI)” value in test [1] was 0.078; in [3] it was 0.75; in test [8], 0.375; in test [11] it was 0.19; in [12], less than 0.16; in [15], 0.75. Also, the MIC in test [2] stood at 32 µg/mL; in test [4] it was 1 µg/mL; in [5] it was 64 µg/mL; in test [6], 16 µg/mL; in test [7] it was 1 µg/mL; in [16], 16 µg/mL. The FIC is less than 0.125 in test [9] and less than 0.063 in [10]. Besides, the “fold change (FC)” value came to 32 in test [13], 4 in test [17] and 4 in test [18]. For the same molecule, the survival at 100 mg/kg in test [14] came to 75%. Besides, the Activity result in test [19] and in test [20] was “Dose-dependent effect” in each case.
Consider `CO[C@H]1/C=C/O[C@@]2(C)Oc3c(C)c(O)c4c(O)c(c(/C=N/N5CCN(C)CC5)c(O)c4c3C2=O)NC(=O)/C(C)=C\C=C\[C@H](C)[C@H](O)[C@@H](C)[C@@H](O)[C@@H](C)[C@H](OC(C)=O)[C@@H]1C` [RIFAMPIN], for which the FIC in test [21] worked out at 0.5; in [22] it was 0.25; in test [23], 0.5; in [24] it was 0.5; in test [25], 0.5. The MIC in test [26] and in test [27] was 16 µg/mL throughout.
As to `CO[C@H]1/C=C/O[C@@]2(C)Oc3c(C)c(O)c4c(O)c(c(/C=N/N5CCN(Cc6cn(CCCCCCCCCCCCO[C@@H]7[C@@H](O[C@H]8O[C@H](CO)[C@@H](O)[C@H](N)[C@H]8O)[C@H](N)C[C@H](N)[C@H]7O[C@H]7O[C@H](CN)[C@@H](O)C[C@H]7N)nn6)CC5)c(O)c4c3C2=O)NC(=O)/C(C)=C\C=C\[C@H](C)[C@H](O)[C@@H](C)[C@@H](O)[C@@H](C)[C@H](OC(C)=O)[C@@H]1C.O=C(O)C(F)(F)F.O=C(O)C(F)(F)F.O=C(O)C(F)(F)F.O=C(O)C(F)(F)F.O=C(O)C(F)(F)F`, the “fractional inhibitory concentration index (FICI)” value is 0.094 in [1], 0.75 in [3], 0.375 in [8] and 0.625 in test [15]. For the same molecule, the minimal inhibitory concentration (MIC) in test [2] is 64 µg/mL; in [4], 1 µg/mL; in [5], 64 µg/mL; in test [6] it was 32 µg/mL; in test [7], 1 µg/mL; in test [16] it was 16 µg/mL. Also, the figures for the “fold change (FC)” value in test [28] and in test [29] were 4 and 0, respectively. Also, the Activity entry in test [19] and in test [20] was “Dose-dependent effect” each time.
Take `NC[C@H]1O[C@H](O[C@H]2[C@H](O)[C@@H](O[C@H]3O[C@H](CO)[C@@H](O)[C@H](N)[C@H]3O)[C@H](N)C[C@@H]2N)[C@H](N)C[C@@H]1O` [TOBRAMYCIN]: in [30], the MIC is 4100 µg/mL. The FIC is 0.5 in test [21]; 0.5 in [22]; 0.5 in test [23]; 0.5 in [24]; 0.5 in [25]; 0.125 in test [31]. Moreover, the FIC in test [32] is listed as 0.25.
